For series [1] the following is noted: as reported in TOXNET, National Library of Medicine; cited from earlier work.
The subject of series [2] is Salmonella typhimurium strain TA1535. Description: bacterial reverse mutation test (standard plate incorporation assay). The series is classed as cell-based. On the procedure: The genotoxic activity of N-(3-chlorophenyl)-N′-(3-chloropropyl)-piperazine has been assessed on histidine-dependent auxotrophic mutants of Salmonella typhimurium strains TA1535, TA1537, TA 98 and TA100, and on tryptophan-dependent mutants of Escherichia coli strain WP2 uvrA (pKM101), exposed to a solution of N-(3-chlorophenyl)-N′-(3-chloropropyl)-piperazine in dimethylsulphoxide (DMSO) and using DMSO as negative control. Two independent mutation tests were performed, both in the presence and absence of a liver microsomal fraction (S9 mix) of rat treated with phenobarbital and 5,6-benzoflavone. Tests were standard plate incorporation assays and performed according to the current regulatory guidelines. A substantial increase in reversion to prototrophy was obtained on strain TA1535 in the presence of S9 mix. In the two assays the increase was concentration related and reached, following exposure to 1500 μg per plate of N-(3-chlorophenyl)-N′-(3-chloropropyl)-piperazine, 6.4 and 5.1 times the control value.

Here are results for two molecules from patent US8133893B2, “Trazodone and trazodone hydrochloride in purified form” (Aziende Chimiche Riunite Angelini Francesco A.C.R.A.F. …, priority 2007, dated 2012).

Where “and” joins values, the source holds several entries; their conditions need not be identical. Equal values may be shown once.

In the case of 2,2-Dichloroethylamine, in series [1], the genotoxicity entry was “known genotoxic substances”. Consider `ClCCCN1CCN(c2cccc(Cl)c2)CC1` [N-(3-chlorophenyl)-N′-(3-chloropropyl)-piperazine], for which, in series [2] (bacterial system, following metabolic activation (S9 mix)), the “genotoxic activity (conclusion)” value is reported as “exhibited genotoxic activity”. In series [2] (strain TA1535, in the presence of S9 mix (rat liver microsomal fraction), 1500 μg per plate, two independent assays, DMSO negative control), the “increase in reversion to prototrophy” value is 6.4 times the control value and 5.1 times the control value.
